Measurements from patent publication US11230535B2, “CFTR regulators and methods of use thereof” (THE REGENTS OF THE UNIVERSITY OF CALIFORNIA, priority 2015, dated 2022).
“Also recorded” adds a separate entry of the source.

Key:
[1] = tested on: CaCC in HT-29 cells; assay: Non-TMEM16A CaCC plate reader assay in HT-29 cells expressing YFP; assay type: cell-based; details: 10 μM
Method: Platereader assays of chloride channel function. CFTR activity was assayed as described. FRT cells co-expressing YFP and wildtype CFTR were washed with phosphate-buffered saline (PBS) and then incubated for 10 min with test compounds in PBS containing 125 nM forskolin. I^− influx was measured in a plate reader with initial baseline read for 2 s and then for 12 s after rapid addition of an I^−-containing solution. TMEM16A activity was assayed similarly as described using FRT cells co-expressing YFP and TMEM16A. Activity of non-TMEM16A CaCC was assayed as described in HT-29 cells expressing YFP. In each assay initial rates of I^− influx were computed as a linear measure of channel function.

[2] = tested on: cytoplasmic calcium; assay: Cytoplasmic calcium by Fluo-4 fluorescence in FRT cells; assay type: cell-based, rat; details: 10 μM; for inhibition of the ATP-stimulated elevation in cytoplasmic calcium: 100 μM ATP
Method: (§1) cAMP and Ca^2+ assays. FRT cells expressing wildtype CFTR were cultured in 12-well plates. After washing with PBS, cells were incubated for 10 min with compounds in the absence or presence of 90 nM forskolin and then lysed. Lysates were assayed for cAMP content using a cAMP immunoassay kit (Parameter cAMP Immunoassay Kit, R&D Systems, Minneapolis, Minn.). For cytoplasmic calcium measurements, FRT cells in 96-well black-walled microplates were loaded with Fluo-4 NW (Invitrogen, Carlsbad, Calif.) and Fluo-4 fluorescence was measured with a plate reader equipped with syringe pumps and monochromators.

[3] = tested on: cAMP; assay: Cellular cAMP immunoassay in CFTR-expressing FRT cells; assay type: cell-based, rat; details: 10 μM, 10 min
Method: as §1

[4] = Pharmacokinetics in mice (plasma LC/MS); assay type: in vivo, mouse
Method: (§2) All animal experiments were approved by UCSF Institutional Animal Care and Use Committee. Female CD1 mice were treated with 10 mg/kg CFTRact-J027 (saline containing 5% DMSO and 10% Kolliphor HS 15) either intraperitoneally (ip) or orally. Blood was collected at 15, 30, 60, 150, 240 and 360 min after treatment by orbital puncture and centrifuged at 5000 rpm for 15 min to separate plasma. Plasma samples (60 μL) were mixed with 300 μL acetonitrile and centrifuged at 13000 rpm for 20 min, and 90 μL of the supernatant was used for LC/MS. The solvent system consisted of a linear gradient from 5 to 95% acetonitrile over 16 min (0.2 ml/min flow). Mass spectra was acquired on a mass spectrometer (Waters 2695 and Micromass ZQ) using electrospray (+) ionization, mass ranging from 100 to 1500 Da, cone voltage 40 V. Calibration standards were prepared in plasma from untreated mice to which known amounts of CFTRact-J027 were added.
as §2, with “Pharmacokinetics. All” for “All”

[5] = tested on: cAMP; assay: cAMP GloSensor luminescence assay in FRT cells; assay type: cell-based, rat
Method: Intracellular cAMP activity was measured using a GloSensor luminescence assay (Promega Corp., Madison, Wis., USA). FRT null cells were stably transfected with the pGloSensor cAMP plasmid and plated onto white 96-well microplates and grown to confluence. Cells were washed three times with PBS and incubated with 5 μM CFTRact-J027 for 10 min in the absence and presence of 100 nM forskolin. cAMP was assayed according to the manufacturer's instructions.
Intracellular cAMP activity was measured using a GloSensor luminescence assay (Promega Corp., Madison, Wis., USA). FRT cells stably transfected with the pGloSensor cAMP plasmid (Promega Corp.) were cultured in white 96-well microplates (Corning Costar) overnight. Cells were then washed three times with PBS and incubated with 5 μM test compound for 10 min in the absence and presence of 100 nM forskolin.
cAMP assay. Intracellular cAMP activity was measured using a GloSensor luminescence assay (Promega Corp., Madison, Wis., USA). FRT null cells were stably transfected with the pGloSensor cAMP plasmid and plated onto white 96-well microplates and grown to confluence. […]
cAMP and cytotoxicity assays. Intracellular cAMP activity was measured using a GloSensor luminescence assay (Promega Corp., Madison, Wis., USA). […]

Row | SMILES | effect on calcium-activated chloride channels in HT-29 cells [1] | increase of cytoplasmic calcium [2] | inhibition of the ATP-stimulated elevation in cytoplasmic calcium [2] | cellular cAMP [3] | serum elimination half-life ([4]; 10 mg/kg ip) [min] | serum concentration at 150 min ([4]; 10 mg/kg ip, 150 min) | bioavailability, in words ([4]; 10 mg/kg oral) | blood levels ([4]; 10 mg/kg oral) [nM] | serum concentration at other time points ([4]; 10 mg/kg oral) | serum concentration at 30 min ([4]; 10 mg/kg oral, 30 min) [nM] | cellular cAMP, added together with forskolin ([5]; 5 μM + 100 nM forskolin) | cellular cAMP, compound alone ([5]; 5 μM, 10 min)
1 | CCN(CC)c1nc(Nc2ccc3ncsc3c2)nc(OC(C(F)(F)F)C(F)(F)F)n1 [6k, N′-(1,3-Benzothiazol-6-yl)-N,N-diethyl-6-[(1,1,1,3,3,3-hexafluoropropan-2-yl)oxy]-1,3,5-triazine-2,4-diamine] | no activation; also recorded: neither inhibited nor activated | did not | did not | did not elevate cellular cAMP |  |  |  |  |  |  |  | 
2 | Nc1ccc([N+](=O)[O-])cc1-c1nc2ccccc2n(Cc2ccccc2)c1=O [CFTRact-J027, 3-(2-amino-5-nitrophenyl)-1-benzylquinoxalin-2(1H)-one] |  |  |  |  | ~16 | undetectable | very low bioavailability; also recorded: minimal bioavailability | < 200 | undetectable | 180 | does not further increase cAMP | without causing elevation of cytoplasmic cAMP; also recorded: does not elevate cellular cAMP
3 | CNc1nc(Nc2ccccc2)nc(OCC(F)(F)C(F)F)n1 [compound 12, N-methyl-N′-phenyl-6-(2,2,3,3-tetrafluoropropoxy)-1,3,5-triazine-2,4-diamine] | no activation; also recorded: neither inhibited nor activated | without causing cAMP or calcium elevation; also recorded: did not | did not | without causing cAMP or calcium elevation; also recorded: did not elevate cellular cAMP |  |  |  |  |  |  |  | 
